# Measurements published in patent publication US20050009894A1 (Aventis Pharma S.A., priority 2001, published 2005).
# Molecular target: T1, human KDR enzyme (Homo sapiens, UniProt P35968)
# T1 construct: The cytoplasmic domain of human KDR enzyme is cloned in the form of a GST fusion; GST; made in house; host or cells: SF21 insect cells (baculovirus, pFastBac)
# Test: Phosphorylation of the substrate PLCγ by the enzyme KDR in vitro (flashplate technique)
# Assay type: biochemical
# Conditions: Table VII, degrees of activity by IC50 range; read-out: Activity
# How it was run: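 GST-fused human KDR cytoplasmic domain (Sf21 baculovirus, ~60% pure; 100 ng/well) phosphorylating 2 μg GST-PLCγ SH2-SH3 fragment in MOPS pH 7.2 with MgCl2/MnCl2, 1 h at 37° C. Started with γ33P-ATP plus cold ATP (2 μM in start solution); flashplate radioactivity. % inhibition vs no-compound control; IC50 from dose-response curves.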
# T1 sequence (P35968 786-1356 limits assumed): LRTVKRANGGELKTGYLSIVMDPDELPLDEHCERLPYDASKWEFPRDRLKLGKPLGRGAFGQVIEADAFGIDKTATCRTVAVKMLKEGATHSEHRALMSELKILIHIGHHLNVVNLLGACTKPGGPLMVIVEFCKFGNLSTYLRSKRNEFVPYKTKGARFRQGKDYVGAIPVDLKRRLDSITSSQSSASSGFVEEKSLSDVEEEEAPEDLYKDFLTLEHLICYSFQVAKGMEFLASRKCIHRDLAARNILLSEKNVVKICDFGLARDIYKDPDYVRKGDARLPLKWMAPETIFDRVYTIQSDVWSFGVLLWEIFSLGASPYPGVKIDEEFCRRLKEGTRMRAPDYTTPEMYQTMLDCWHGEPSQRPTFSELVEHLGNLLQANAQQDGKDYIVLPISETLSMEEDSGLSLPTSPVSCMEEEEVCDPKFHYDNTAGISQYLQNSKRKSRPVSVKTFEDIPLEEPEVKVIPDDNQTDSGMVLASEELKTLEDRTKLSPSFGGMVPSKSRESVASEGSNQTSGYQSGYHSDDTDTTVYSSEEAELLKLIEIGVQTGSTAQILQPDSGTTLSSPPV
row,Compound,IC50 [µM]
1,"O=C(NCc1cccc(C(F)(F)F)c1)c1cccc2nc(-c3n[nH]c4ccccc34)[nH]c12 [Example 88, 2-(1H-Indazol-3-yl)-3H-benzoimidazole-4-carboxylic acid 3-trifluoromethyl-benzylamide]",> 3
2,"CSc1ccccc1CNC(=O)c1cccc2nc(-c3n[nH]c4ccccc34)[nH]c12 [Example 89, 2-(1H-Indazol-3-yl)-3H-benzoimidazole-4-carboxylic acid 2-methylsulfanyl-benzylamide]",< 0.3
3,"O=C(NCc1ccoc1)c1cccc2nc(-c3n[nH]c4ccccc34)[nH]c12 [Example 90, 2-(1H-Indazol-3-yl)-3H-benzoimidazole-4-carboxylic acid (furan-3-ylmethyl)-amide]",0.3 to 3
4,"O=C(NCc1ccccc1[N+](=O)[O-])c1cccc2nc(-c3n[nH]c4ccccc34)[nH]c12 [Example 91, 2-(1H-Indazol-3-yl)-3H-benzoimidazole-4-carboxylic acid 2-nitro-benzylamide]",0.3 to 3
5,"Cc1cc(C)cc(CNC(=O)c2cccc3nc(-c4n[nH]c5ccccc45)[nH]c23)c1 [Example 92, 2-(1H-Indazol-3-yl)-3H-benzoimidazole-4-carboxylic acid 3,5-dimethyl-benzylamide]",0.3 to 3
6,"O=C(NCc1cccc(Cl)c1)c1cccc2nc(-c3n[nH]c4ccccc34)[nH]c12 [Example 93, 2-(1H-Indazol-3-yl)-3H-benzoimidazole-4-carboxylic acid 3-chloro-benzylamide]",> 3
7,"O=C(Nc1ccccc1)c1cccc2nc(-c3n[nH]c4ccccc34)[nH]c12 [Example 94, 2-(1H-Indazol-3-yl)-3H-benzoimidazole-4-carboxylic acid phenylamide]",0.3 to 3
8,"O=C(NCc1ccccc1)c1cccc2nc(-c3n[nH]c4ccccc34)[nH]c12 [Example 95, 2-(1H-Indazol-3-yl)-3H-benzoimidazole-4-carboxylic acid benzylamide]",> 3
9,"O=C(NCCc1ccccc1)c1cccc2nc(-c3n[nH]c4ccccc34)[nH]c12 [Example 96, 2-(1H-Indazol-3-yl)-3H-benzoimidazole-4-carboxylic acid phenethyl-amide]",> 3
10,"c1ccc(-c2ccc3nc(-c4[nH]nc5ccccc45)[nH]c3c2)cc1 [Example 97, 3-(6-Phenyl-1H-benzimidazol-2-yl)-2H-indazole]",> 3
11,"Clc1ccc(-c2ccc3nc(-c4[nH]nc5ccccc45)[nH]c3c2)c(Cl)c1 [Example 98, 3-[6-(2,4-Dichloro-phenyl)-1H-benzoimidazol-2-yl]-2H-indazole]",> 3
12,"c1ccc2c(-c3ccc4nc(-c5[nH]nc6ccccc56)[nH]c4c3)cccc2c1 [Example 99, 3-(6-Naphthalen-1-yl-1H-benzoimidazol-2-yl)-2H-indazole]",> 3
13,"Fc1ccc(-c2ccc3nc(-c4[nH]nc5ccccc45)[nH]c3c2)cc1 [Example 100, 3-[6-(4-Fluoro-phenyl)-1H-benzoimidazol-2-yl]-2H-indazole]",0.3 to 3
14,"Clc1cc(Cl)cc(-c2ccc3nc(-c4[nH]nc5ccccc45)[nH]c3c2)c1 [Example 104, 3-[6-(3,5-Dichloro-phenyl)-1H-benzoimidazol-2-yl]-2H-indazole]",> 3
15,"c1ccc2c(c1)Sc1cccc(-c3ccc4nc(-c5n[nH]c6ccccc56)[nH]c4c3)c1S2 [Example 105, 3-(6-Thianthren-1-yl-1H-benzoimidazol-2-yl)-2H-indazole]",> 3
16,"c1ccc(-c2ccc(-c3ccc4nc(-c5[nH]nc6ccccc56)[nH]c4c3)cc2)cc1 [Example 106, 3-(6-Biphenyl-4-yl-1H-benzoimidazol-2-yl)-2H-indazole]",> 3
17,"Cc1ccccc1-c1ccc2nc(-c3[nH]nc4ccccc34)[nH]c2c1 [Example 109, 3-(6-o-Tolyl-1H-benzoimidazol-2-yl)-2H-indazole]",0.3 to 3
18,"c1ccc2c(-c3nc4ccc(-c5ccsc5)cc4[nH]3)[nH]nc2c1 [Example 110, 3-(6-Thiophen-3-yl-1H-benzoimidazol-2-yl)-2H-indazole]",0.3 to 3
19,"FC(F)(F)c1cccc(-c2ccc3nc(-c4[nH]nc5ccccc45)[nH]c3c2)c1 [Example 111, 3-[6-(3-Trifluoromethyl-phenyl)-1H-benzoimidazol-2-yl]-2H-indazole]",> 3
20,"FC(F)(F)c1ccc(-c2ccc3nc(-c4[nH]nc5ccccc45)[nH]c3c2)cc1 [Example 112, 3-[6-(4-Trifluoromethyl-phenyl)-1H-benzoimidazol-2-yl]-2H-indazole]",> 3
21,"CC(C)(C)c1ccc(-c2ccc3nc(-c4[nH]nc5ccccc45)[nH]c3c2)cc1 [Example 118, 3-[6-(4-tert-Butyl-phenyl)-1H-benzoimidazol-2-yl]-2H-indazole]",> 3
22,"CCCC/C=C/c1ccc2nc(-c3[nH]nc4ccccc34)[nH]c2c1 [Example 119, 3-(6-Hex-1-enyl-1H-benzoimidazol-2-yl)-2H-indazole]",0.3 to 3
23,"FC(F)(F)Oc1ccc(-c2ccc3nc(-c4[nH]nc5ccccc45)[nH]c3c2)cc1 [Example 124, 3-[6-(4-Trifluoromethoxy-phenyl)-1H-benzoimidazol-2-yl]-2H-indazole]",> 3
24,"CC(=O)c1ccc(-c2ccc3nc(-c4[nH]nc5ccccc45)[nH]c3c2)cc1 [Example 125, 1-{4-[2-(2H-Indazol-3-yl)-3H-benzoimidazol-5-yl]-phenyl}-ethanone]",> 3
25,"c1ccc2sc(-c3ccc4nc(-c5[nH]nc6ccccc56)[nH]c4c3)cc2c1 [Example 126, 3-(6-Benzo[b]thiophen-2-yl-1H-benzoimidazol-2-yl)-2H-indazole]",> 3
26,"CC(=O)c1ccc(-c2ccc3nc(-c4[nH]nc5ccccc45)[nH]c3c2)s1 [Example 128, 1-{5-[2-(2H-Indazol-3-yl)-3H-benzoimidazol-5-yl]-thiophen-2-yl}-ethanone]",0.3 to 3
27,"CC(=O)c1cccc(-c2ccc3nc(-c4[nH]nc5ccccc45)[nH]c3c2)c1 [Example 129, 1-{3-[2-(2H-Indazol-3-yl)-3H-benzoimidazol-5-yl]-phenyl}-ethanone]",> 3
28,"c1ccc(COc2ccc(-c3ccc4nc(-c5[nH]nc6ccccc56)[nH]c4c3)cc2)cc1 [Example 130, 3-[6-(4-Benzyloxy-phenyl)-1H-benzoimidazol-2-yl]-2H-indazole]",> 3
29,"Fc1cc(-c2ccc3nc(-c4[nH]nc5ccccc45)[nH]c3c2)ccc1-c1ccccc1 [Example 131, 3-[6-(2-Fluoro-biphenyl-4-yl)-1H-benzoimidazol-2-yl]-2H-indazole]",> 3
30,"c1ccc2c(-c3nc4ccc(-c5csc6ccccc56)cc4[nH]3)[nH]nc2c1 [Example 132, 3-(6-Benzo[b]thiophen-3-yl-1H-benzoimidazol-2-yl)-2H-indazole]",> 3

# More lines, now with the values ahead:
row,IC50 [µM],Compound
1,> 3,"Clc1ccc(-c2ccc3nc(-c4[nH]nc5ccccc45)[nH]c3c2)cc1 [Example 101, 3-[6-(4-Chloro-phenyl)-1H-benzoimidazol-2-yl]-2H-indazole]"
2,0.3 to 3,"COc1ccc(-c2ccc3nc(-c4[nH]nc5ccccc45)[nH]c3c2)cc1 [Example 102, 3-[6-(4-Methoxy-phenyl)-1H-benzoimidazol-2-yl]-2H-indazole]"
3,0.3 to 3,"Fc1ccc(-c2ccc3nc(-c4[nH]nc5ccccc45)[nH]c3c2)cc1Cl [Example 103, 3-[6-(3-Chloro-4-fluoro-phenyl)-1H-benzoimidazol-2-yl]-2H-indazole]"
4,> 3,"Cc1ccc(-c2ccc3nc(-c4[nH]nc5ccccc45)[nH]c3c2)cc1 [Example 107, 3-(6-p-Tolyl-1H-benzoimidazol-2-yl)-2H-indazole]"
5,0.3 to 3,"Cc1cccc(-c2ccc3nc(-c4[nH]nc5ccccc45)[nH]c3c2)c1 [Example 108, 3-(6-m-Tolyl-1H-benzoimidazol-2-yl)-2H-indazole]"
6,0.3 to 3,"Clc1cccc(-c2ccc3nc(-c4[nH]nc5ccccc45)[nH]c3c2)c1 [Example 113, 3-[6-(3-Chloro-phenyl)-1H-benzoimidazol-2-yl]-2H-indazole]"
7,0.3 to 3,"COc1cccc(-c2ccc3nc(-c4[nH]nc5ccccc45)[nH]c3c2)c1 [Example 114, 3-[6-(3-Methoxy-phenyl)-1H-benzoimidazol-2-yl]-2H-indazole]"
8,0.3 to 3,"Cc1cc(C)cc(-c2ccc3nc(-c4[nH]nc5ccccc45)[nH]c3c2)c1 [Example 115, 3-[6-(3,5-Dimethyl-phenyl)-1H-benzoimidazol-2-yl]-2H-indazole]"
9,> 3,"Cc1ccc(-c2ccc3nc(-c4[nH]nc5ccccc45)[nH]c3c2)cc1C [Example 116, 3-[6-(3,4-Dimethyl-phenyl)-1H-benzoimidazol-2-yl]-2H-indazole]"
10,0.3 to 3,"c1ccc2c(-c3nc4ccc(-c5ccc6c(c5)OCO6)cc4[nH]3)[nH]nc2c1 [Example 117, 3-(6-Benzo[1,3]dioxole-5-yl-1H-benzoimidazol-2-yl)-2H-indazole]"
11,0.3 to 3,"COc1ccc(-c2ccc3nc(-c4[nH]nc5ccccc45)[nH]c3c2)cc1OC [Example 120, 3-[6-(3,4-Dimethoxy-phenyl)-1H-benzoimidazol-2-yl]-2H-indazole]"
12,0.3 to 3,"Oc1cccc(-c2ccc3nc(-c4[nH]nc5ccccc45)[nH]c3c2)c1 [Example 121, 3-[2-(2H-Indazol-3-yl)-3H-benzoimidazol-5-yl]-phenol]"
13,0.3 to 3,"Oc1ccc(-c2ccc3nc(-c4[nH]nc5ccccc45)[nH]c3c2)cc1 [Example 122, 4-[2-(2H-Indazol-3-yl)-3H-benzoimidazol-5-yl]-phenol]"
14,> 3,"Clc1ccc(-c2ccc3nc(-c4[nH]nc5ccccc45)[nH]c3c2)cc1Cl [Example 123, 3-[6-(3,4-Dichloro-phenyl)-1H-benzoimidazol-2-yl]-2H-indazole]"
15,0.3 to 3,"COc1cc(-c2ccc3nc(-c4[nH]nc5ccccc45)[nH]c3c2)cc(OC)c1OC [Example 127, 3-[6-(3,4,5-Trimethoxy-phenyl)-1H-benzoimidazol-2-yl]-2H-indazole]"
